The values below come from ChEMBL document CHEMBL5241115, “Postmodification of voxelotor (GBT 440) via [Rh]-catalyzed cross dehydrogenative coupling with olefins” (2022).

Molecules are shown by their SMILES.

This assay can be described thus: Induction of oxygen binding efficiency of haemoglobin from human sickled red blood cells at 100 uM measured every 10 mins for 180 mins by spectral scan analysis relative to control. It counts as functional, Erythrocyte. The note with it: 3 h.
Take `COc1ccc(/C=C/c2cnn(C(C)C)c2-c2ncccc2COc2cccc(O)c2C=O)c(OC)c1`: the Activity came out at 81.1%.
In the case of `CCCCC(=O)/C=C/c1cnn(C(C)C)c1-c1ncccc1COc1cccc(O)c1C=O` it was 82%; in that of `CC(C)n1nccc1-c1ncccc1COc1cccc(O)c1C=O` [VOXELOTOR], 100%; in that of `Cc1ccc(/C=C/c2cnn(C(C)C)c2-c2ncccc2COc2cccc(O)c2C=O)cc1`, 78.9%.
In the case of `COc1ccc(/C=C/c2cnn(C(C)C)c2-c2ncccc2COc2cccc(O)c2C=O)cc1` it was 78.6%.
